# Assay results: patent US7799753B2, “Bisubstrate inhibitors of protein tyrosine kinases as therapeutic agents” (Board of Governers for Higher Education, priority 2004, dated 2010)
# Numbered stars: 1 amine (or outer) side, 2 acyl side, 3 side chain; on linkers, the order of the positions; unused ones are H or OH. Square brackets hold non-standard residues; d marks the D form. Peptide text beside a SMILES is read from it. * marks the point of attachment. X2 = CS(=O)(=O)Nc1ccc(C[C@H](N[*:1])C(=O)[*:2])cc1; Phe(4-NH2) = Nc1ccc(C[C@H](N)C(=O)O)cc1; X1 = Nc1ncnc2c1c(-c1ccccc1)nn2CC(=O)*
# Columns and labels:
# [1] = target: T1, Src (Homo sapiens, UniProt P12931); experiment: Steady-state kinetic radioactive assay with Src (polyE4Y, [γ-32P]ATP), ATP-phosphopeptide conjugates; type: biochemical
# Experimental: Steady-State Kinetic Assays.
# Artificial substrate polyE4Y (average MW: 35 kD) was used for routine kinase activity. The kinase activity of PTKs was first determined using a standard radiometric PTK activity assay. This assay contains polyE4Y as the phosphate accepting substrate, [γ-^32P]-ATP, and MgCl2. After a reaction time of 30 min at 30° C., 35 μl of the reaction mixture was removed and spotted onto a filter paper and placed into warm 5% trichloroacetic acid (TCA). The TCA stops the kinase reaction, precipitates the proteins and polyE4Y onto the filter paper, and washes the un-reacted ATP and others away. After 3 TCA washes for 10 min each, the radioactivity remaining on the filter paper was determined by liquid scintillation counting. The assays were done in duplicates and repeated at least three times. Control reactions lacking polyE4Y were included for each enzyme concentration to correct for any non-polyE4Y specific phosphorylation. […] The inhibitory mechanism was determined based on the effect of the compound on the Km and Vm values Inhibitory constant (Ki) was determined by using Sigma Plot 8.0 Enzyme Kinetics Module.
# [2] = target: T1, Src; experiment: Radioactive kinase assay, polyE4Y phosphorylation by Src (peptides, N-heteroaromatics and conjugates); type: biochemical
# [3] = read-out: IC50, inhibition of polyE4Y phosphorylation by Src
# T1 sequence (P12931 whole entry, species assumed): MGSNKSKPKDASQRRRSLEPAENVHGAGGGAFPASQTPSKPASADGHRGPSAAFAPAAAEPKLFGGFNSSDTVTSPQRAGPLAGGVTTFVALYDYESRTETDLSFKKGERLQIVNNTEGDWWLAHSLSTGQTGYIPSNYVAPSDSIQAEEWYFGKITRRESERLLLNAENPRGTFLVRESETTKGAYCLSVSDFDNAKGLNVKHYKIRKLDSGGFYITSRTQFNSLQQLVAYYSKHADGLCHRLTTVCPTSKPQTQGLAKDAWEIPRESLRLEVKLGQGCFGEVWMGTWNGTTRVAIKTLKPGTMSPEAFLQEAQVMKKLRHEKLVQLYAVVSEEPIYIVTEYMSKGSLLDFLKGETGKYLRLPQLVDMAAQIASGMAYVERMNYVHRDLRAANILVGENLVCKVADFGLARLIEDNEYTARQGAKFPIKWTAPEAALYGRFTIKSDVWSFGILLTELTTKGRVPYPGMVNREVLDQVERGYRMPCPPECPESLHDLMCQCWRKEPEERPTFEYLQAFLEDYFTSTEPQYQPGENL
compound,measurement,setting,value
"CC[C@H](C)[C@H](NC(=O)[C@H](CCC(=O)O)NC(=O)[C@H](CCC(=O)O)NC(=O)[C@H](Cc1ccc(OP(=O)(O)O)cc1)NC(=O)CCC(=O)NCCCOCCOCCOCCCNS(=O)(=O)c1ccc(C(=O)OC[C@H]2O[C@@H](n3cnc4c(N)ncnc43)[C@H](O)[C@@H]2O)cc1)C(=O)O [Compound 9, 4-(sulfamoyl)benzoyladenosine-pYEEI]",IC50,[1],> 300 µM
same,enhancement of catalytic activity and phosphorylation,[1]; Src,at least 40%
"CC[C@H](C)[C@H](NC(=O)[C@H](CCC(=O)O)NC(=O)[C@H](CCC(=O)O)NC(=O)[C@H](Cc1ccc(OP(=O)(O)O)cc1)NC(=O)CCC(=O)NCCCOCCOCCOCCCN)C(=O)O [Compound 16, H2N-1,13-Trioxa-Suc-pTyr-Glu-Glu-Ile-OH]",Ki,[1],608 µM
"CC[C@H](C)[C@H](NC(=O)[C@H](Cc1ccc(O)cc1)NC(C)=O)C(=O)N[C@@H](Cc1ccc(O)cc1)C(=O)NCC(=O)N[C@@H](CO)C(=O)N[C@@H](Cc1ccccc1)C(=O)N[C@@H](CCCCN)C(=O)O [Compound 41, Ac-YIYGSFK, reference compound] (Ac-YIYGSFK-OH; C-terminus assumed)",IC50,[2]; [3],570 µM
CC[C@H](C)[C@H](NC(=O)[C@H](Cc1ccc(O)cc1)NC(=O)Cn1nc(-c2ccccc2)c2c(N)ncnc21)C(=O)N[C@@H](Cc1ccc(O)cc1)C(=O)NCC(=O)N[C@@H](CO)C(=O)N[C@@H](Cc1ccccc1)C(=O)N[C@@H](CCCCN)C(=O)O [Compound 43] (X1-YIYGSFK-OH),IC50,[2]; [3],2.7 µM
"CC[C@H](C)[C@H](NC(=O)[C@H](CS)NC(C)=O)C(=O)N[C@@H](Cc1ccc(O)cc1)C(=O)N[C@@H](CCCCN)C(=O)N[C@@H](Cc1ccc(O)cc1)C(=O)N[C@@H](Cc1ccc(N)cc1)C(=O)O [Compound 68, Ac-CIYKYF(NH2)] (Ac-CIYKY[Phe(4-NH2)]-OH)",Src inhibitory potency in words,"[2]; qualitative, relative to parent or comparator named in the text",not active
"CC[C@H](C)[C@H](NC(=O)[C@H](CS)NC(C)=O)C(=O)N[C@@H](Cc1ccc(O)cc1)C(=O)N[C@@H](CCCCN)C(=O)N[C@@H](Cc1ccc(NS(C)(=O)=O)cc1)C(=O)N[C@@H](Cc1ccc(O)cc1)C(=O)O [Compound 80, Ac-CIYKF(4-NHSO2CH3)Y] (Ac-CIYK[X2]Y-OH)",IC50,[2],> 100 µM
"CC[C@H](C)[C@H](NC(=O)[C@@H](N)Cc1ccc(O)cc1)C(=O)N[C@@H](Cc1ccc(O)cc1)C(=O)NCC(=O)N[C@@H](CO)C(=O)N[C@@H](Cc1ccccc1)C(=O)N[C@@H](CCCCN)C(=O)O [Compound 85, YIYGSFK] (H-YIYGSFK-OH)",IC50,"[2]; modified peptide analogs, read-out: IC50 (μM), Src kinase inhibitory potency (Table 1)",> 100 µM
